For eleven compounds, IC50 results are on record in ChEMBL document CHEMBL1127803 (J Med Chem, 1994).

For assay [1], the target named is T1, Delta-type opioid receptor (Mus musculus, UniProt P32300). The assay is described as follows: Tested for inhibition of binding of [3H]DADLE to mouse brain membranes depleted of mu binding sites by pretreatment with irreversible ligand BIT for delta opioid receptor. The arrangement: species or system Membrane.
Assay [2] has as its target Mu-type opioid receptor (Cavia porcellus, UniProt P97266). Briefly: Tested for agonist activity against mu opioid receptor in guinea pig ileum. It is filed as functional, tissue-based.
Assay [3] deals with T1, Delta-type opioid receptor. Briefly: Tested for agonist activity against delta opioid receptor mouse vas deferens. It is filed as functional, tissue-based.
In assay [4] the target is Mu-type opioid receptor (Rattus norvegicus, UniProt P33535). The assay is described as follows: Evaluated for inhibition of [3H]DAMGO binding from mu receptor in rat brain membranes. It is filed as cell membranes.
Chain of Mu-type opioid receptor (Rattus norvegicus, UniProt P33535) (P33535 whole entry): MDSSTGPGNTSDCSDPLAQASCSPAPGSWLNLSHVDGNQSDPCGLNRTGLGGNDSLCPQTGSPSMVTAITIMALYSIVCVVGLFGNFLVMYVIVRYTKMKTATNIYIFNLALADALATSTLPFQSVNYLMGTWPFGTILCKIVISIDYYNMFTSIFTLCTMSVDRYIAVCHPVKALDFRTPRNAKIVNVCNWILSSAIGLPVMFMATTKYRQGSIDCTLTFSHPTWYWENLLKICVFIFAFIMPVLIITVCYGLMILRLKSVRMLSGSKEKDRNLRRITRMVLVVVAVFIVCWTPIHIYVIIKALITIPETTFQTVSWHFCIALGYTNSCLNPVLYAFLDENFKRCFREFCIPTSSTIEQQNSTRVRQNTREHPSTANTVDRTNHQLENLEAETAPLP

The structures appear in SMILES notation. Where a SMILES comes first, the peptide text is derived from it. [ ]: non-standard residue; d: D form. The star is where a group is joined. Tyr(Nα,Nα-allyl2) = C=CCN(CC=C)[C@@H](Cc1ccc(O)cc1)C(=O)*; Aib = CC(C)(N)C(=O)O

Chain of Mu-type opioid receptor (Cavia porcellus, UniProt P97266) (P97266 whole entry): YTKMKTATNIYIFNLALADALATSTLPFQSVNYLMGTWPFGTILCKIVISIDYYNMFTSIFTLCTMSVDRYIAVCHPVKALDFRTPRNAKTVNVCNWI
T1 sequence (P32300 whole entry): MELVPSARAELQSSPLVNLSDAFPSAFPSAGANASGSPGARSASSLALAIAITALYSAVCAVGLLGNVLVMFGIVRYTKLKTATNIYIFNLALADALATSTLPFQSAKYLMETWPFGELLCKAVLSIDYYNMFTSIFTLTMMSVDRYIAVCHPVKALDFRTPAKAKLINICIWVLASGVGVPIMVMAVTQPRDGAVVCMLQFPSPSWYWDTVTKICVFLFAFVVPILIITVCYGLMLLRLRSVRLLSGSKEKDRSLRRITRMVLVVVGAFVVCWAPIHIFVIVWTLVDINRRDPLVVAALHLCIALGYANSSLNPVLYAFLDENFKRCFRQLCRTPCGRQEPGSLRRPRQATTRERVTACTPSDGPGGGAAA

By IC50 is commonly meant the point on the concentration scale where inhibition reaches its midpoint. For the compound `C=CCN1CC(C)N(C(c2ccc(C(=O)N(CC)CC)cc2)c2cccc(O)c2)CC1C` (racemic), the IC50 in assay [1] is 0.92 nM; in assay [2], 143 nM; in assay [3], 0.2 nM.

Regarding `C=CCN1C[C@H](C)N([C@@H](c2ccc(C(=O)N(CC)CC)cc2)c2cccc(OC)c2)C[C@H]1C`, the IC50 in assay [2] turned out to be 5460 nM; in assay [4], 2470 nM.

With `C=CCN1CC(C)N([C@H](c2ccc(C(=O)N(CC)CC)cc2)c2cccc(OC)c2)CC1C` (single isomer, unassigned) [SNC-80], the IC50 in assay [4] worked out at 9370 nM.

For `C=CCN1C[C@H](C)N([C@H](c2ccc(C(=O)N(CC)CC)cc2)c2cccc(OC)c2)C[C@H]1C` [SNC-80], in assay [4], the IC50 was 5710 nM.

Turning to `C=CCN1C[C@@H](C)N([C@H](c2ccc(C(=O)N(CC)CC)cc2)c2cccc(O)c2)C[C@@H]1C`, the IC50 in assay [1] was 9.58 nM.

On to `CC(C)[C@H](NC(=O)[C@H](CCC(=O)O)NC(=O)[C@H](Cc1ccccc1)NC(=O)[C@@H](C)NC(=O)[C@@H](N)Cc1ccc(O)cc1)C(=O)N[C@H](C(=O)NCC(=O)O)C(C)C` [DELTORPHIN], for which the IC50 in assay [2] was 15000 nM.

Turning to `C=CCN(CC=C)[C@@H](Cc1ccc(O)cc1)C(=O)NC(C)(C)C(=O)NC(C)(C)C(=O)N[C@@H](Cc1ccccc1)C(=O)N[C@@H](CC(C)C)C(=O)O.C=CCN1C[C@H](C)N([C@@H](c2ccc(C(=O)N(CC)CC)cc2)c2cccc(OC)c2)C[C@H]1C` ({Tyr(Nα,Nα-allyl2)}-[Aib][Aib]FL-OH), the IC50 in assay [3] was found to be 3250 nM.

Turning to `C=CCN1C[C@@H](C)N([C@@H](c2ccc(C(=O)N(CC)CC)cc2)c2cccc(O)c2)C[C@@H]1C`, the half-inhibitory concentration (IC50) in assay [1] turned out to be 0.49 nM.

On to `C=CCN1C[C@@H](C)N(C(c2ccc(C(=O)N(CC)CC)cc2)c2cccc(OC)c2)C[C@@H]1C` (single isomer, unassigned), for which the IC50 was 1520 nM in assay [2] and 9140 nM in assay [4].

Turning to `C=CCN1C[C@H](C)N(C(c2ccc(C(=O)N(CC)CC)cc2)c2cccc(O)c2)C[C@H]1C` (single isomer, unassigned; (+)-1), the concentration for half-maximal inhibition (IC50) in assay [1] came to 0.31 nM.

On to `C=CCN1C[C@H](C)N(C(c2ccc(C(=O)N(CC)CC)cc2)c2cccc(O)c2)C[C@H]1C` (single isomer, unassigned; (+)-10), for which the IC50 in assay [1] turned out to be 5.96 nM.
